Assays:
ECHCG (barnyardgrass) = experiment: Pre-emergence herbicidal activity, warm season; format: in vivo, Echinochloa crus-galli; conditions: GR80 = lowest tested rate (300, 100, 30, 10 g/ha) with 80% or greater inhibition; approx. 14 days after treating; 30/21° C.
Method in brief: (§1)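 Seeds sown in sterilised fertilised topsoil received surface-applied compound in 50:50 acetone/water, typically at 300, 100, 30 and 10 g/ha, then greenhouse-grown at 30/21° C (warm-season species) or 18/13° C (cool-season species). Percent inhibition versus untreated plants was scored at about 14 days, giving GR80; an asterisk marks activity short of 80% at the top rate.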

wheat (TRZAW) = experiment: Selectivity test, PPI, cool season crop; format: in vivo, Triticum aestivum; conditions: PPI application
Method in brief: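 Pre-plant incorporated: compound in organic solvent sprayed onto cover soil, mixed and laid over seeds; untreated soil for controls. Greenhouse after treatment: warm season 30/21° C., cool season 18/13° C. day/night. Percent inhibition versus untreated plants scored about 14 days after planting.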

[1] = system: SORHA (johnsongrass (seedling)); experiment: Pre-emergence herbicidal activity, warm season; format: in vivo, Sorghum halepense; conditions: GR80 = lowest tested rate (300, 100, 30, 10 g/ha) with 80% or greater inhibition; approx. 14 days after treating; 30/21° C.
Method in brief: as §1

AMARE (redroot pigweed) = experiment: Pre-emergence herbicidal activity, warm season; format: in vivo, Amaranthus retroflexus; conditions: GR80 = lowest tested rate (300, 100, 30, 10 g/ha) with 80% or greater inhibition; approx. 14 days after treating; 30/21° C.
Method in brief: as §1

[2] = system: LAMPU (purple deadnettle); experiment: Pre-plant incorporated (PPI) herbicidal activity, cool season; format: in vivo, Lamium purpureum; conditions: for Percent inhibition LAMPU: weed, PPI application
Method in brief: (§2)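 Greenhouse PPI test with treated cover soil over seeds; % inhibition vs untreated at about 14 days.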

[3] = system: BRAPP (broadleaf signalgrass); experiment: Pre-emergence herbicidal activity, warm season; format: in vivo, Brachiaria platyphylla; conditions: GR80 = lowest tested rate (300, 100, 30, 10 g/ha) with 80% or greater inhibition; approx. 14 days after treating; 30/21° C.
Method in brief: as §1

SORVU (shattercane) = experiment: Pre-plant incorporated (PPI) herbicidal activity, warm season; format: in vivo, Sorghum vulgare; conditions: for Percent inhibition SORVU: PPI application
Method in brief: as §2

PANDI (fall panicum) = experiment: Pre-emergence herbicidal activity, warm season; format: in vivo, Panicum dichotomiflorum; conditions: GR80 = lowest tested rate (300, 100, 30, 10 g/ha) with 80% or greater inhibition; approx. 14 days after treating; 30/21° C.
Method in brief: as §1

SETVI (green foxtail) = experiment: Pre-plant incorporated (PPI) herbicidal activity, cool season; format: in vivo, Setaria viridis; conditions: for Percent inhibition SETVI: weed, PPI application
Method in brief: as §2

[4] = system: AGSST (creeping bentgrass); experiment: Pre-emergence herbicidal activity, cool season; format: in vivo, Agrostis stolonifera; conditions: GR80 = lowest tested rate (300, 100, 30, 10 g/ha) with 80% or greater inhibition; approx. 14 days after treating; 18/13° C.
Method in brief: as §1

ALOMY (blackgrass) = experiment: Pre-plant incorporated (PPI) herbicidal activity, cool season; format: in vivo, Alopecurus myosuroides; conditions: for Percent inhibition ALOMY: weed, PPI application
Method in brief: as §2

[5] = pre-plant incorporated, lowest tested rate with 80% or greater inhibition, about 14 days

SMILES: CCN(CC)C(=O)n1cnc(S(=O)(=O)C(F)(F)C(F)F)n1 [Example 16]
- Pre-emergence activity (GR80) ECHCG (ECHCG (barnyardgrass)): 100 g/ha
- Percent inhibition TRZAW (wheat (TRZAW); 10 g/ha): 0%
- Percent inhibition TRZAW (wheat (TRZAW); 30 g/ha): 0%
- Percent inhibition TRZAW (wheat (TRZAW); 100 g/ha): 10%
- Percent inhibition TRZAW (wheat (TRZAW); 300 g/ha): 10%
- Percent inhibition TRZAW (wheat (TRZAW); 900 g/ha): 20%
- Pre-emergence activity (GR80) SORHA [1]: 100 g/ha
- Pre-emergence activity (GR80) AMARE (AMARE (redroot pigweed)): 300 g/ha
- PPI activity GR80, LAMPU [2, 5]: 10 g/ha
- Percent inhibition LAMPU ([2]; 10 g/ha): 50%
- Percent inhibition LAMPU ([2]; 30 g/ha): 80%
- Percent inhibition LAMPU ([2]; 100 g/ha): 90%
- Percent inhibition LAMPU ([2]; 300 g/ha): 80%
- Percent inhibition LAMPU ([2]; 900 g/ha): 90%
- Pre-emergence activity (GR80) BRAPP [3]: 300 g/ha
- Percent inhibition SORVU (SORVU (shattercane); 10 g/ha): 20%
- Percent inhibition SORVU (SORVU (shattercane); 30 g/ha): 80%
- Percent inhibition SORVU (SORVU (shattercane); 100 g/ha): 100%
- Percent inhibition SORVU (SORVU (shattercane); 300 g/ha): 100%
- Percent inhibition SORVU (SORVU (shattercane); 900 g/ha): 100%
- PPI activity GR80, SORVU (SORVU (shattercane); [5]): 30 g/ha
- Pre-emergence activity (GR80) PANDI (PANDI (fall panicum)): 100 g/ha
- PPI activity GR80, SETVI (SETVI (green foxtail); [5]): 10 g/ha
- Percent inhibition SETVI (SETVI (green foxtail); 10 g/ha): 100%
- Percent inhibition SETVI (SETVI (green foxtail); 30 g/ha): 80%
- Percent inhibition SETVI (SETVI (green foxtail); 100 g/ha): 95%
- Percent inhibition SETVI (SETVI (green foxtail); 300 g/ha): 100%
- Percent inhibition SETVI (SETVI (green foxtail); 900 g/ha): 100%
- Pre-emergence activity (GR80) AGSST [4]: 30 g/ha
- PPI activity GR80, ALOMY (ALOMY (blackgrass); [5]): 30 g/ha
- Percent inhibition ALOMY (ALOMY (blackgrass); 10 g/ha): 40%
- Percent inhibition ALOMY (ALOMY (blackgrass); 30 g/ha): 95%
- Percent inhibition ALOMY (ALOMY (blackgrass); 100 g/ha): 100%
- Percent inhibition ALOMY (ALOMY (blackgrass); 300 g/ha): 100%
- Percent inhibition ALOMY (ALOMY (blackgrass); 900 g/ha): 100%
